Where two headings read alike, the source gives them in different places.
Target: T1, indoleamine 2,3-dioxygenase (IDO) (Homo sapiens, UniProt P14902)
T1 construct: media containing IFNγ (#285-IF/CF, R&D Systems) at a final concentration of 25 ng/mL; endogenous in cells; host or cells: HeLa (ATCC CCL-2), induced with IFN-gamma
Assay: HeLa cell-based indoleamine 2,3-dioxygenase (IDO) assay
Conditions: HeLa cells with IFNγ 25 ng/mL, 48 hour incubation, kynurenine production
Procedure: Assessment of Inhibitor Activity in HeLa Cell-Based Indoleamine 2,3-Dioxygenase (IDO) Assay.
HeLa (ATCCR CCL-2) cells were obtained from the ATCC® and cultured in Dulbecco's Modified Eagle Medium supplemented with 4.5 g/L glucose, […] L-glutamine and […] (#10-013-CV, Corning), 2 mM L-alanyl-L-glutamine dipeptide (#35050-061, Gibco), 100U/mL penicillin, 100 µg/mL streptomycin (#SV30010, HyClone) and 10% fetal bovine serum (#SH30071.03 HyClone). Cells were maintained in a humidified incubator at 37° C. in 5% CO2.
IDO activity was assessed as a function of kynurenine production as follows: HeLa cells were seeded in a 96-well culture plate at a density of 5,000 cells/well and allowed to equilibrate overnight. After 24 hours, the media was aspirated and replaced with media containing IFNγ (#285-IF/CF, R&D Systems) at a final concentration of 25 ng/mL. A serial dilution of each test compound was added to the cells in a total volume of 200 μL of culture medium. After a further 48 hour incubation, 170 μL of supernatant was transferred from each well to a fresh 96-well plate. 12.1 μL of 6. IN trichloroacetic acid (#T0699, Sigma-Aldrich) was added to each well and mixed, followed by incubation at 65° C. for 20 minutes to hydrolyze N-formylkynurenine, the product of indoleamine 2,3-dioxygenase, to kynurenine. The reaction mixture was then centrifuged for 10 mins at 500×g to sediment the precipitate. 100 μL of the supernatant was transferred from each well to a fresh 96-well plate. 100 μl of 2% (w/v) p-dimethylaminobenzaldehyde (#15647-7, Sigma-Aldrich) in acetic acid (#A6283, Sigma-Aldrich) was added to each well mixed and incubated at room temperature for 20 mins. Kynurenine concentrations were determined by measuring absorbance at 480 nm and calibrating against an L-kynurenine (#K8625, Sigma-Aldrich) standard curve using a SPECTRAMAX® M2e microplate reader (Molecular Devices). The percentage activity at each inhibitor concentration was determined and IC50 values assessed using nonlinear regression.

[1] = read-out: IDO Hela IC50 potency class (A < 50, B < 250, C < 2000)

T1 sequence (P14902 whole entry): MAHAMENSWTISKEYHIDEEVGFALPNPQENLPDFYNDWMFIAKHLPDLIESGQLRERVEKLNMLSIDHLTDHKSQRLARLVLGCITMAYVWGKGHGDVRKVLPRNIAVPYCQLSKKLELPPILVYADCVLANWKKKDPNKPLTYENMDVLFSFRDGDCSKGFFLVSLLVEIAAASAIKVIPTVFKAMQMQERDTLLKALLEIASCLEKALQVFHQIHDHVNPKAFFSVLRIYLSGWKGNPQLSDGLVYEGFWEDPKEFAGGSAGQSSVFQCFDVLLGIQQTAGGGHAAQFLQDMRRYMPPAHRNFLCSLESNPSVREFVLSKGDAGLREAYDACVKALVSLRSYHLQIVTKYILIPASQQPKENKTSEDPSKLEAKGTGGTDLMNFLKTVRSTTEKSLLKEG

IC50 (read-out: IDO Hela IC50) [nM]	IC50 [1] [nM]	Structure (SMILES)
20	–	CCOc1ncc(Nc2cc([C@H](CC)CC(=O)O)ccc2C2CCN(C(=O)OC(C)(C)C)CC2)cn1 (single isomer, unassigned) [Example 25]
20	–	CCOc1ncc(Nc2cc([C@@H](CC)CC(=O)O)ccc2C2CCN(C(=O)OC(C)(C)C)CC2)cn1 (single isomer, unassigned) [Example 26]
820	–	CC[C@H](CC(=O)O)c1ccc(C2CCN(C(=O)OC(C)(C)C)CC2)c(Nc2cnc(C)nc2)c1 (single isomer, unassigned) [Example 27]
760	–	CC[C@@H](CC(=O)O)c1ccc(C2CCN(C(=O)OC(C)(C)C)CC2)c(Nc2cnc(C)nc2)c1 (single isomer, unassigned) [Example 28]
130	–	CCc1ncc(Nc2cc([C@H](CC)CC(=O)O)ccc2C2CCN(C(=O)OC(C)(C)C)CC2)cn1 (single isomer, unassigned) [Example 29]
–	< 50	CC[C@H](CC(=O)O)c1ccc(C2CCN(C(=O)OC(C)(C)C)CC2)c(Nc2ccc(C#N)cc2)c1 (single isomer, unassigned) [Example 30]
20	–	CCc1ncc(Nc2cc([C@@H](CC)CC(=O)O)ccc2C2CCN(C(=O)OC(C)(C)C)CC2)cn1 (single isomer, unassigned) [Example 31]
–	< 50	CC[C@@H](CC(=O)O)c1ccc(C2CCN(C(=O)OC(C)(C)C)CC2)c(Nc2ccc(C#N)cc2)c1 (single isomer, unassigned) [Example 32]
≥ 1000	250 to 2000	COC[C@@H](CC(=O)O)c1ccc(-c2cnn(C)c2)c(Nc2ccc(C#N)cc2)c1 (single isomer, unassigned) [Example 33, 3-(3-((4-cyanophenyl)amino)-4-(1-methyl-1H-pyrazol-4-yl)phenyl)-4-methoxybutanoic Acid]
320	–	COC[C@@H](CC(=O)O)c1ccc(-c2ccc3c(c2)OCO3)c(Nc2ccc(C#N)cc2)c1 (single isomer, unassigned) [Example 34]
10	–	COC[C@@H](CC(=O)O)c1ccc(-c2ccoc2)c(Nc2ccc(C#N)cc2)c1 (single isomer, unassigned) [Example 35]
30	–	COC[C@@H](CC(=O)O)c1ccc(-c2cnn(Cc3ccc(OC)cc3)c2)c(Nc2ccc(C#N)cc2)c1 (single isomer, unassigned) [Example 36]
50	–	COC[C@H](CC(=O)O)c1ccc(-c2ccc3c(c2)OCO3)c(Nc2ccc(C#N)cc2)c1 (single isomer, unassigned) [Example 38]
20	–	COC[C@H](CC(=O)O)c1ccc(-c2ccoc2)c(Nc2ccc(C#N)cc2)c1 (single isomer, unassigned) [Example 39]
90	–	COC[C@H](CC(=O)O)c1ccc(-c2ccc3c(c2)CCO3)c(Nc2ccc(C#N)cc2)c1 (single isomer, unassigned) [Example 40]
≥ 1000	250 to 2000	COC[C@H](CC(=O)O)c1ccc(-c2cncnc2)c(Nc2ccc(C#N)cc2)c1 (single isomer, unassigned) [Example 43]
450	–	COC[C@H](CC(=O)O)c1ccc(-c2cnn(Cc3ccccc3)c2)c(Nc2ccc(C#N)cc2)c1 (single isomer, unassigned) [Example 44]
50	–	COC[C@H](CC(=O)O)c1ccc(-c2cnn(Cc3ccc(OC)cc3)c2)c(Nc2ccc(C#N)cc2)c1 (single isomer, unassigned) [Example 45]
40	–	CCOc1ncc(Nc2cc([C@H](CC)CC(=O)O)ccc2-c2ccoc2)cn1 (single isomer, unassigned) [Example 46]
10	–	CCOc1ncc(Nc2cc([C@H](CC)CC(=O)O)ccc2-c2cnn(Cc3ccc(OC)cc3)c2)cn1 (single isomer, unassigned) [Example 47]

IC50 (read-out: IDO Hela IC50) [nM]	IC50 [1] [nM]	Structure (SMILES)
340	–	CCOc1ncc(Nc2cc([C@H](CC)CC(=O)O)ccc2-c2cnn(-c3ccc(F)cc3)c2)cn1 (single isomer, unassigned) [Example 48]
30	–	CCOc1ncc(Nc2cc(C(CC)CC(=O)O)ccc2-c2ccc(OC)c(F)c2)cn1 (single isomer, unassigned) [Example 49]
≥ 1000	250 to 2000	CCOc1ncc(Nc2cc([C@H](CC)CC(=O)O)ccc2-c2cccc3[nH]ncc23)cn1 (single isomer, unassigned) [Example 50]
150	–	CCOc1ncc(Nc2cc([C@H](CC)CC(=O)O)ccc2-c2ccc3c(cnn3C)c2)cn1 (single isomer, unassigned) [Example 51]
≥ 1000	250 to 2000	CCOc1ncc(Nc2cc([C@H](CC)CC(=O)O)ccc2-c2ccncc2F)cn1 (single isomer, unassigned) [Example 52]
30	–	CCOc1ncc(Nc2cc([C@H](CC)CC(=O)O)ccc2-c2ccc(OC)cc2F)cn1 (single isomer, unassigned) [Example 53]
90	–	CCOc1ncc(Nc2cc([C@H](CC)CC(=O)O)ccc2-c2c(C)noc2C)cn1 (single isomer, unassigned) [Example 54]
≥ 1000	250 to 2000	CCOc1ncc(Nc2cc([C@H](CC)CC(=O)O)ccc2-c2cnn(CCN3CCOCC3)c2)cn1 (single isomer, unassigned) [Example 55]
390	–	CCOc1ncc(Nc2cc([C@H](CC)CC(=O)O)ccc2C2=CC3CCC(C2)N3C(=O)OC(C)(C)C)cn1 (single isomer, unassigned) [Example 56]
110	–	CCc1ncc(Nc2cc([C@H](CC)CC(=O)O)ccc2-c2sc(C)nc2C)cn1 (single isomer, unassigned) [Example 57]
390	–	CCc1ncc(Nc2cc([C@@H](CC)CC(=O)O)ccc2-c2sc(C)nc2C)cn1 (single isomer, unassigned) [Example 58]
220	–	COC[C@@H](CC(=O)O)c1ccc(-c2sc(C)nc2C)c(Nc2ccc(C#N)cc2)c1 (single isomer, unassigned) [Example 59]
10	–	CCOc1ncc(Nc2cc([C@H](CC)CC(=O)O)ccc2-c2sc(C)nc2C)cn1 (single isomer, unassigned) [Example 61]
890	–	CCOc1ncc(Nc2cc([C@H](CC)CC(=O)O)ccc2-c2ccc(C#N)cn2)cn1 (single isomer, unassigned) [Example 62]
700	–	CCOc1ncc(Nc2cc([C@H](CC)CC(=O)O)ccc2-c2ncc(F)cn2)cn1 (single isomer, unassigned) [Example 63]
≥ 1000	250 to 2000	CCOc1ncc(Nc2cc([C@H](CC)CC(=O)O)ccc2-c2cnc(OCC)nc2)cn1 (single isomer, unassigned) [Example 64]
≥ 1000	250 to 2000	CCOc1ncc(Nc2cc([C@H](CC)CC(=O)O)ccc2-c2ccc3nc(C)oc3c2)cn1 (single isomer, unassigned) [Example 65]
750	–	CCOc1ncc(Nc2cc([C@H](CC)CC(=O)O)ccc2-c2cccc(C(F)F)n2)cn1 (single isomer, unassigned) [Example 66]
≥ 1000	250 to 2000	CCOc1ncc(Nc2cc([C@H](CC)CC(=O)O)ccc2-c2c[nH]c3cnccc23)cn1 (single isomer, unassigned) [Example 67]
500	–	CCOc1ncc(Nc2cc([C@H](CC)CC(=O)O)ccc2-c2ccc3nc(C)sc3c2)cn1 (single isomer, unassigned) [Example 68]
